Results taken from patent US9040691B2, “Hydroxymethylaryl-substituted pyrrolotriazines as ALK1 inhibitors” (BAYER INTELLECTUAL PROPERTY GMBH, priority 2011, dated 2015).

Legend:
[1] = system: laser-induced choroidal neovascularisation; test: Topical efficacy in the laser-induced choroidal neovascularization (CNV) model; assay type: in vivo, rat; settings: Brown-Norway rats, eye drops 10 μl of 20 mg/ml twice daily; for vascular leakage [HRA score]: angiography day 21, score 0-3; for choroidal neovascularisation lesion size: day 23
Description: B-4. Topical Efficacy in the Laser-Induced Choroidal Neovascularization (CNV) Model
For this purpose, 65 pigmented Brown-Norway rats with no visible sign of ocular defects were selected and randomly assigned to six different groups (for n-numbers, see table below). On day 0, the animals were anaesthetized by an intraperitoneal injection (15 mg/kg xylazine and 80 mg/kg ketamine). After instillation of one drop of 0.5% tropicamide to dilate the pupils, choroidal neovascularisation was induced by burning six holes into the retina (disruption of Bruch's membrane) of one eye per animal using a 532 nm argon laser (lesion size: 50 μm; laser intensity: 150 mW; stimulus duration: 100 ms). Test compounds and vehicle controls were topically administered twice daily by instilling respective eye drops into the affected eye. The test compounds were dosed as follows: 10 μl of an eye drop formulation containing 20 mg/ml of the respective test compound suspended either in 100% liquid paraffin or in an aqueous vehicle (HPMC 15 cP 3.5%, polysorbate 80 0.5%, NaCl 0.9% in water) were applied to the affected eye twice daily at a 10 to 14 hour interval during the complete observation period of 23 days. Control animals received the respective vehicle (100% liquid paraffin or aqueous vehicle) topically twice daily. The body weight of all animals was recorded before the start and once daily during the study.
An angiography was performed on day 21 using a fluorescence fundus camera (Kowe). Here, after anaesthesia and pupillary dilation, 10% sodium fluorescein dye was injected subcutaneously, and images were recorded 2 and 10 min after dye injection. The vascular leakage of the fluorescein on the angiograms was evaluated by three different examiners who were blinded for group allocation (test compound versus vehicle), and scored with 0 (no leakage) to 3 (strongly stained).
On day 23, animals were sacrificed, and eyes were harvested and fixed in 4% paraformaldehyde solution for 1 hour at room temperature. After washing, the retina was carefully peeled, washed, blocked and stained with a FITC-isolectine B4 antibody in order to visualize the vasculature. Then, the sclera-choroids were flat-mounted and examined under a fluorescence microscope (Keyence Biozero) at 488 nm excitation wavelength. The area (in μm^2) of choroidal neovascularization was measured using ImageTool software.

[2] = system: laser-induced choroidal neovascularisation; test: Systemic efficacy in the laser-induced choroidal neovascularization (CNV) model; assay type: in vivo, rat; settings: Brown-Norway rats, i.p. once daily 50 mg/kg days 0-1 then 20 mg/kg
Description: B-3. Systemic Efficacy in the Laser-Induced Choroidal Neovascularization (CNV) Model
For this purpose, 16 pigmented Brown-Norway rats with no visible sign of ocular defects were selected and randomly divided into two groups of eight animals each. On day 0, the animals were anaesthetized by an intraperitoneal injection (15 mg/kg xylazine and 80 mg/kg ketamine). After instillation of one drop of 0.5% tropicamide to dilate the pupils, choroidal neovascularisation was induced by executing six 75 μm-sized choroidal burns around the optic disc of the right eyes using a 532 nm argon laser photocoagulation at 150 mW for 100 ms. […] The body weight of all animals was recorded before the start and once daily during the study.
An angiography was performed on day 21 using Heidelberg's Retinal Angiograph (HRA). After anaesthesia and pupillary dilation, 10% sodium fluorescein dye was injected subcutaneously, and images were recorded 10 min after dye injection. The vascular leakage of the fluorescein on the angiograms was evaluated by two examiners in a masked fashion and scored with 0 (no leakage) to 3 (strongly stained).
After euthanasia on day 23, the eyes were harvested and fixed in 4% paraformaldehyde solution for 1 hour at room temperature. […] The flat-mounted preparations were examined under a fluorescence microscope (Apotom) at 488 nm excitation wavelength. […]

ALK1 kinase = ALK1 kinase (Homo sapiens (Human), UniProt P37023); test: ALK1 kinase assay (ProQinase protocol); assay type: biochemical; settings: ProQinase radiometric assay, casein, γ-33P-ATP
Description: B-1b. ALK1 Kinase Assay (ProQinase Protocol)
ALK1 (Invitrogen, Carlsbad, Calif., USA) kinase activity was measured at ProQinase GmbH (Freiburg, Germany) in a radiometric assay using γ-^33P-ATP and casein (Sigma, St. Louis, Mo., USA) as substrate in 96-well PerkinElmer FlashPlates™ (Boston, Mass., USA). The compounds were tested at 10 concentrations in the range of 1×10^−4 M to 3×10^−9 M in a total volume of 50 μl with a final DMSO concentration of 1% each. The assay components were mixed in the order: • 20 μl assay buffer (70 mM HEPES-NaOH, pH 7.5, 3 mM MgCl2, 3 mM MnCl2, 2 μM sodium orthovanadate, 1.2 mM DTT); • 5 μl γ-^33P-ATP (1.0 μM in water, approx. 6×10^5 cpm per well); • 5 μl test compound solution (in 10% DMSO); • […] (200 μg/ml, 1.0 μg/50 μl final concentration)/enzyme (4 μg/ml, 20 ng/50 μl=5.5 nM final concentration) solution (1:1 mixture).
The reaction mixtures were incubated at 30° C. for 60 minutes and stopped by adding 50 μl 2% (v/v) phosphoric acid. The plates were aspirated and washed twice with 200 μl 0.9% (w/v) sodium chloride. Incorporation of ^33Pi was determined with a microplate scintillation counter (Microbeta, Wallac). All assays were performed using a BecicmanCoulter/SAGIAN™ Core System.
Median values obtained from unspecific substrate binding of labelled. ATP were set as background level, while median values measured in the absence of any inhibitor were considered to reflect full activity of ALK1 kinase. The background activity (ba) was subtracted from the full activity (fa) value as well as from the values obtained from the test compound containing samples (test compound activity, tea). The residual activity in the latter was calculated as follows: residual activity (%)=100×[(tca−ba)/(fa−ba)]
The residual activities for each concentration and the compound IC50 values were calculated using Quattro Workflow V3.1.0 (Quattro Research GmbH, Munich, Germany). The fitting model for the IC50 determinations was “Sigmoidal response (variable slope)” with parameters “top” fixed at 100% and “bottom” at 0%. The fitting method used was a least-squares fit.

Chain of ALK1 kinase (P37023 22-503): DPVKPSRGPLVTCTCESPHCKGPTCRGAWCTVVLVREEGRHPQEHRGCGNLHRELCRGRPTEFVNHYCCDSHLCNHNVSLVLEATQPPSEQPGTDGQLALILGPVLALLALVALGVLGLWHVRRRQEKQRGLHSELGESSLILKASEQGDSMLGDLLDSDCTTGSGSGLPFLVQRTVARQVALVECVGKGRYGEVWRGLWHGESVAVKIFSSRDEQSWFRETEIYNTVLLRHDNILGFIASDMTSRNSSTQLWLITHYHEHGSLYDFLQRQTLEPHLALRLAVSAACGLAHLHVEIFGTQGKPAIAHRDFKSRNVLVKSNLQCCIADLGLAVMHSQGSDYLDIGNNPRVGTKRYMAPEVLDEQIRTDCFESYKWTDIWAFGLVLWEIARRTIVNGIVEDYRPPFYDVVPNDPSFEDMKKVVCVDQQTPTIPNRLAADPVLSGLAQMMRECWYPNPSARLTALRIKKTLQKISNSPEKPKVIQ

IC50 (ALK1 kinase) | Structure (SMILES) | vascular leakage [HRA score] ([1]; aqueous vehicle) | choroidal neovascularisation lesion size ([1]; aqueous vehicle) | vascular leakage [HRA score] ([1]; paraffin vehicle) | choroidal neovascularisation lesion size ([1]; paraffin vehicle) | vascular leakage [angiography score] ([2]; angiography day 21, score 0-3) | choroidal neovascularisation lesion volume ([2]; day 23)
3 nM | Nc1ncnn2c([C@@H]3CCCNC3)cc(-c3cc(F)c(CO)c(F)c3)c12 [Example 11, (4-{4-Amino-7-[(3R)-piperidin-3-yl]pyrrolo[2,1-f][1,2,4]triazin-5-yl}-2,6-difluorophenyl)methanol] | 1.66 ± 0.29 HRA score | 5.50 ± 1.38 μm^2 × 10 000 | 1.41 ± 0.29 HRA score | 6.45 ± 1.63 μm^2 × 10 000 | 0.68 ± 0.35 angiography score | 3.48 ± 0.40 μm^3 × 100 000
6.7 nM | Nc1ncnn2c1c(-c1cc(F)c(CO)c(F)c1)cc2[C@H]1CC[C@H](O)CC1 [Example 7, trans-4-[4-Amino-5-[3,5-difluoro-4-(hydroxymethyl)phenyl]pyrrolo[2,1-f][1,2,4]triazin-7-yl]-cyclohexanol] | 1.49 ± 0.24 HRA score | 6.14 ± 1.60 μm^2 × 10 000 | 1.52 ± 0.21 HRA score | 6.21 ± 0.99 μm^2 × 10 000 | – | –
